We go through one molecule from patent US5330992A, “1-cyclopropyl-4-pyridyl-quinolinones” (priority 1992, dated 1994).

The structures appear in SMILES notation.

Holding throughout (parameters): species or system mouse
Data set [1] in a line: In vivo antitumor assay, Mam16C(sc). The following applies: mouse, in vivo, drug route iv, qd 1, bid 2,3. An excerpt:
(§1) Mice: Inbred: C3H/He and NCR-nu; and Hybrids: B6D2Fl (C57BL/6 females X DBA/2 males, CD2Fl (Balb/c females X DBS/2 males) and B6x C3fl (C57BL/6 x C3H) were bred at Wayne State University from strained obtained from the Frederick Cancer Research Facility, Frederick, Md. or purchased from commercial suppliers.
(§2) Tumors: Murine Tumor: P388 and an adriamycin-resistant (ADR) subline P388/ADR leukemia and the following transplantable solid tumors of mice were used for in Vivo testing: B16 melanoma (B16), pancreatic ductal adenocarcinoma No. 03 (Panc 03), colon adenocarcinoma No. 38 (colo 38), mammary ductal adenocarcinoma No. 16/C (Mam16) and an adriamycin-resistantsubline Mam16C/ADR. Human tumor: A single human tumor, mammary carcinoma MX-1 (MX1) was used for in vivo testing. All tumors are in the Developmental Therapeutics Program frozen tumor respository, maintained by the Biological Testing Branch, Frederick Md. Each has a detailed description, code identification number, and list of references at the National Tumor Repository. […]
(§3) Quantitative end points used assess antitumor activity included % Increased Life Span (% ILS), Tumor Cell Kill (Log10 kill), and Tumor Growth Inhibition (T/C). […]
(§4) The log10 cell kill was calculated from the following formula: [formula] where T-C is the tumor difference in the median day of death between the treated (T) and the control (C) groups and Td is the tumor doubling time (in days), the latter estimated from the best fit straight line from a log-linear growth plot of the control-group tumors in exponential growth. […]
(§5) Tumors were measured with a caliper once or twice weekly (as needed) until either tumors exceeded 1600 mg or cure was assured. […] When the control group tumors reached approximately 750-1500 mg in size (median of group), the median tumor weight of each group was determined (including zeros). […] The % T/C was calculated from the following formula for solid murine tumor models: [formula] where T and C are median tumor weights of the treatment and control groups, respectively. […]

The test system of data set [2] is mammary ductal adenocarcinoma No. 16/C (Mam16). The data set is described as follows: In vivo antitumor assay, Mam16C(sc). The following applies: drug route iv.
From the text: as §1, §2, §3, §4, §5

Data set [3] is described as follows: In vivo antitumor assay, Mam16C/ADR. To be noted: mouse, in vivo, drug route iv, qd 1 bid 2,3.
From the text: as §1
(§6) Tumors: Murine Tumor: P388 and an adriamycin-resistant (ADR) subline P388/ADR leukemia and the following transplantable solid tumors of mice were used for in Vivo testing: B16 melanoma (B16), pancreatic ductal adenocarcinoma No. 03 (Panc 03), colon adenocarcinoma No. 38 (colo 38), mammary ductal adenocarcinoma No. 16/C (Mam16) and an adriamycin-resistantsubline Mam16C/ADR. […]
as §3, §5

The test system of data set [4] is adriamycin-resistant subline Mam16C/ADR. The data set is described as follows: In vivo antitumor assay, Mam16C/ADR. The following applies: drug route iv, qd 1 bid 2,3.
From the text: as §1, §6, §3, §5

Turning to `Cc1cc(-c2c(F)cc3c(=O)c(Cc4c(O)cccc4O)cn(C4CC4)c3c2F)cc(C)n1` [Example 26, 1-Cyclopropyl-6,8-difluoro-7-[2,6-dimethyl-4-pyridinyl]-3-[2,6-dihydroxyphenylmethyl]-1,4-dihydroquinoline-4-one], the MTD came to 15 mg/kg in data set [1] and 30 mg/kg in data set [3]. The T/C % is 28% in data set [2] (qd 1, bid 2,3) and 71% in data set [4]. The “LOG KILL” value in data set [2] (qd 1, bid 2,3, log10 cell kill) was 0.90.
